Data published in patent US20150297603A1, “HIGH DRUG LOAD TABLET FORMULATION OF [(1R), 2S]-2-AMINOPROPIONIC ACID 2-[4-(4-FLUORO-2-METHYL-1H-INDOL-5-YLOXY)-5-METHYLPYRROLO[2,1-f][1,2,4]TRIAZIN-6-YLOXY]-1-METHYLETHYL ESTER” (Bristol-Myers Squibb Company, priority 2011, published 2015).

Legend:
Format in all cases: physicochemical
[1] = pH dependent solubility
Excerpt: (§1) Brivanib alaninate is an ester compound that is formulated as a free base.

[2] = Stability in solution as a function of pH; conditions: at acidic pH and at high pH
Excerpt: as §1
(§2) Its main degradation pathway at neutral and basic pH is hydrolysis to the parent compound, brivanib. Under acidic conditions, it can also undergo diaryl ether cleavage in solution as shown below.

[3] = Degradation of drug during wet granulation process; conditions: wet granulation process (water as processing aid)
Excerpt: The use of wet granulation process for brivanib alaninate was not expected to be suitable because brivanib alaninate degrades by hydrolysis. Therefore, any person skilled in the art of pharmaceutical formulation would logically implement all measures to minimize the exposure of drug to water during handling, formulation, processing, and storage.
The manufacturing process of this formulation generally involves mixing the drug with dry powder excipients, such as with one or more binder, disintegrant, and filler. Water is then added to this premix while it is being continuously mixed in a mixer such as a high shear granulator. Alternatively, the binder may not be added as a dry powder to the premix, but dissolved in water. Addition of water with continuous mixing leads to the formation of granules, or granulation. The granules are then dried in dry, hot air using equipment and processes such as fluid bed drying or tray drying. Once dried, the granules may be milled using equipment such as comil or Fitzmil to reduce and/or reduce the width of distribution of particle size of granules. The granules are then mixed with extra-granular ingredients, which may include one or more of disintegrant, filler, glidant, and lubricant. The final blend is then compressed on a tablet press into core tablets. The core tablets may optionally be coated with a nonfunctional film coat.

[4] = pKa of brivanib alaninate; conditions: free base
Excerpt: as §1

[5] = Stability of solid drug substance on storage; conditions: stored at room temperature protected from moisture
Excerpt: as §2

For `Cc1cc2c(F)c(Oc3ncnn4cc(OC[C@@H](C)OC(=O)[C@H](C)N)c(C)c34)ccc2[nH]1` [Brivanib alaninate, [(1R), 2S]-2-aminopropionic acid 2-[4-(4-fluoro-2-methyl-1H-indol-5-yloxy)-5-methylpyrrolo[2,1-f][1,2,4]triazin-6-yloxy]-1-methylethyl ester], the solubility ([1]; acidic pH) was “increasing solubility”, the solubility ([1]; neutral and basic pH) was “limited solubility” and the degradation [2] was “degrades rapidly”. The “degradation of the drug by wet granulation” value [3] was “did not really result in significant degradation”, the pKa [4] was 6.9 and the “stability of solid drug substance” value [5] was “acceptable stability”.
